According to patent publication US20090106856A1, “Selection System for Wheat” (BASF PLANT SCIENCE GMBH, priority 2005, published 2009):

Legend:
[1] = system: wheat immature embryos; experiment: Killing curve: in vitro germination of immature embryos and seedling growth; format: in vivo, Triticum aestivum
Description: In order to establish effective concentrations of D-serine and D-alanine on inhibiting growth of tissue cultured wheat cells, a bioassay system using immature embryos was applied. Immature embryos 2 mm in length were dissected onto germination medium with the selection agents, and incubated at 27° C. in light. The number of germinated embryos with well-developed shoots and brunched shoots were scored after 14 days.
Immature embryos 2 mm in size were isolated from the sterilized caryopses. The embryos were cultured on PAW-5 hormone free medium for germination in dark. Seedlings growth on D-amino acid selection was observed after 2 weeks. Most of the embryos germinated but the seedlings growth was inhibited when roots emerge and the uptake of the selection compound was direct from the medium. The Lethal Dose (LD 100) for seedlings germination and growth was 1 mM concentration of both D-amino acids tested (Table 6). Seedlings derived from embryos isolated from the immature caryopsis without endosperms were susceptible to the selection in concentration higher than 1 mM (FIG. 8).

[2] = system: wheat variety Canon immature embryos / embryogenic callus; experiment: Agrobacterium-mediated transformation with dao1 constructs and selection of transgenic plants; format: cell-based, Triticum aestivum; details: 5 mM selection
Description: Explants were washed with PAW-Inf. medium and immersed in the above-described bacterial suspension for 2 h at 26° C. At the end of infection the explants were placed with scutellum side up on PAW-1 medium. The residual bacterial suspension is removed by pipeting out and air-drying of the infected embryos by opening plates for 15 min on the sterile banch. Plates were sealed with Parafilm and placed in thermostat at 26° C. in the dark for 5-6 days co-cultivation.
After co-cultivation period the explants were washed with sterile water and 500 mg/L Cefotaxime and filter paper dried before being transferred to PAW-2 callus induction-recovery medium containing 160 mg/l Timentin for 14 days (7 days dark/7 days semi light; 13.2 μmol m^−2s^−1). Explants with embryogenic callus were subculture to PAW-2 callus-proliferation medium containing 160 mg/l Timentin and corresponding selection 5 mM D-serine or 5 mM D-alanine or 3 mg/l bialaphos. In some experiments the selection on D-amino acids was starting on PAW-2 callus induction medium 0, 7, 14 and 21 days after co cultivation. Embryogenic callus was subculture twice on fresh selective medium for callus maintaining and regeneration on PAW-4 medium with corresponding selection. Cultures were maintained at 23° C. on light 60.2 μmol m^−2s^−1. Regenerated shoots were subculture to PAW-5 hormone free medium with corresponding selection (5 mM D-serine or 5 mM D-alanine or 3 mg/l bialaphos) for further growth and rooting. All media used in the transformation experiments were filter sterilized and are listed in above. After analyses transgenic plants were transferred to soil and placed for further growth in greenhouse. 1.4 Molecular and expression studies of the transgenic plants
Freshly isolated immature embryos from Canon were inoculated with Agrobacterium. In all experiments Agrobacterium tumefactions super binary vector system based on LBA4404 (pSB1) was used. The constructs pRLM205 containing the original dao1 gene and pRLM226 carrying modified Daol. Both constructs contain gusINT reporter marker gene (FIGS. 3, I and II). Following co cultivation the explants were transferred on callus induction PAW-2 selection free medium containing 160 mg/l Timentin to inhibit bacterial growth for 14 days. For selection embryogenic callus was transferred to PAW-2 selection medium containing 5 mM D-serine or 5 mM D-alanine respectively. Furthermore calli were sub cultured to fresh corresponding selection PAW-2 medium for maintaining. Embryogenic calli were trans-ferred on PAW-4 selection medium for regeneration 5-6 weeks after transformation. The emerging plantlets were further grown and rooted on PAW-5 hormone free selection medium. Well-developed and rooted on selection putative transgenic regenerants were selected in vitro within. When D-alanine was used as selection compound similar effects in callus growth, shoots regeneration and rooting of transgenic plants or non transgenic escapes selected on D-serine was observed. Both selection agents resulted with 1.1% to 1.2% transformation efficiency and no escape rate (Table 9).

[3] = system: control seedlings (wheat); experiment: Spraying of seedlings with D-serine; format: in vivo, Triticum aestivum; details: 5 days old control seedlings; 50-300 mM
Description: Unlike Arabidopsis (Ericson et al. 2004a), spraying of 5 days old control and trans-genic seedlings with D-serine was not efficient in wheat. […] Watering of the plants was also not sufficient. Since the uptake, mobility in soil and detoxification by microorganisms are all potential barriers for D-serine in the soil, the expectation of in soil selection seems bleak. Therefore, that the transgenic plants will use the products from detoxification of D-serine as an additional nitrogen supply was not fulfilled in soil.

[4] = system: non-transgenic wheat plants; experiment: D-serine as a nitrogen source in hydroponics; format: in vivo, Triticum aestivum
Description: T1 and T2 transgenic progenies were grown on hydroponics system where hydroponics solution (Gamborg and Wetter, 1975) was modified by replacing nitrogen with D-serine in five different concentrations (20, 30, 50 70 and 100 mM). Transgenic progenies and control seedlings were grown also on standard hydroponics solution as controls. The dry weigh of all 14 days old seedlings was measured.
Catabolic products of D-serine deaminase are ammonium and pyruvate—key compounds in plant metabolism. Theoretically, transgenic plants equipped with a functional dsdA gene are expected to utilize D-serine as a nitrogen source. We investigated this phenomenon in a hydroponic growth system by exchanging the nitrogen supply with D-serine. T2 progenies representing several independent transgenic events were subjected to two sets of hydroponic experiments.
The first hydroponics experiments were performed with plants from three independent transgenic lines 2256, 2258 and 2264 carrying the dsdA and ahas selectable marker genes and a range of D-serine concentrations (FIG. 15 I). […] Statistically significant differences between controls and transgenic plants on corresponding concentrations of D-serine were detected. Two of these transgenic lines were inhibited in all tested D-serine concentrations. […]

N[C@H](CO)C(=O)O [D-serine] was tested, and the “In vitro germination, Immature Embryos (%)” value (shortened to “In vitro germination … (%)”) ([1]; Bobwhite, 0.5 mM) was 46%, the “In vitro germination … (%)” value ([1]; Bobwhite, 1 mM) was 0% and the “In vitro germination … (%)” value ([1]; Bobwhite, 5 mM) was 0%. The “In vitro germination … (%)” value ([1]; Bobwhite, 10 mM) was 0%, the “In vitro germination … (%)” value ([1]; Canon, 0.5 mM) was 34% and the “In vitro germination … (%)” value ([1]; Canon, 1 mM) was 0%. The “In vitro germination … (%)” value ([1]; Canon, 5 mM) was 0%, the “In vitro germination … (%)” value ([1]; Canon, 10 mM) was 0% and the “ER (%) Escape Rate” value ([2]; pRLM205 (dao1 original)) was 0%. The “TE (%) Transformation Efficiency” value ([2]; pRLM205 (dao1 original)) was 1.1%, the “ER (%) Escape Rate” value ([2]; pRLM226 (dao1/ko modified)) was 0% and the “TE (%) Transformation Efficiency” value ([2]; pRLM226 (dao1/ko modified)) was 0.72%. For the same compound, the “toxicity symptoms after spraying” value [3] was “not sufficient to elicit toxicity symptoms”, the “growth of non-transgenic control plants in hydroponics” value ([4]; hydroponics solution supplemented with 30, 50 and 70 mM) was “not able to grow” and the “growth of non-transgenic plants in hydroponics” value ([4]; nitrogen replaced by D-serine, all tested concentrations (20, 30, 50, 70 and 100 mM)) was “fully inhibited”.
